Where two headings read alike, the source gives them in different places.
Key:
Assay type in all cases: in vivo
Apis mellifera [1] = conditions: for Zahl toter Arbeiterbienen: 10 mg a.s./pl.
Excerpt: (§1) Die Mortalität von Arbeiterbienen vor dem Bienenstock wird mittels einer Falle für tote Bienen (dead bee trap) bestimmt. Die Falle besteht aus Maschendraht und ist vor dem Bienenstock angebracht. Einzelne, lebende Bienen können die Maschen des Drahts passieren, der Transport toter Bienen durch die Maschen ist nicht möglich, weswegen tote Bienen sich in der Falle ansammeln. Tabelle 1 (siehe auch Figur 1)

Apis mellifera [2] = experiment: Greenhouse test / residue test / bees: mortality after contact with treated tomato leaves; conditions: 50 g a.s./ha
Excerpt: Der Versuch wurde wie folgt durchgeführt:
Die Tomatenpflanzen wurden im Gewächshaus mit den Testverbindungen bzw. der Referenzsubstanz behandelt (Spritzappliaktion, 3 fache Wiederholung). 1, 3, 6 und 13 Tage nach Behandlung (DAA) wurden Blätter entnommen (je 5 Blattproben pro Behandlung) und in Boxen gegeben. In jede Box wurden 10 Bienen transferiert und die Boxen wurden unter kontrollierten Bedingungen aufbewahrt, wobei die Bienen mit Zuckerlösung gefüttert wurden. 24, 48 und 72 nach Transfer der Bienen wurde deren Mortalität bestimmt. Tabelle 9 (siehe auch Figur 9)

Apis mellifera [3] = experiment: Tent test / drench application / bees: foraging activity; conditions: for Aktivität der Nahrungssuche, Zahl der Bienen / min / 4 m^2: 10 mg a.s./pl.
Excerpt: Der Test wurde wie folgt durchgeführt:

Apis mellifera [4] = experiment: Tunnel test / spray application / bees: acute mortality of pupae in front of the hive; conditions: 50 g a.s./ha
Excerpt: (§2) Der Test wurde gemäß EPPO (European Plant Protection Organisation) Leitlinie 170 wie folgt durchgeführt:
Tabelle 2 (siehe auch Figur 2)

Apis mellifera [5] = experiment: Tunnel test / spray application / bees: foraging activity; conditions: for Aktivität der Nahrungssuche, Zahl der Bienen / min / m^2: 50 g a.s./ha
Excerpt: as §2
Während einer Minute werden in einem abgegrenzten Bereich von 2 x 1 m^2 die Bienen gezählt, die auf Blüten absitzen. Tabelle 3 (siehe auch Figur 3)

Apis mellifera [6] = conditions: for Zahl toter Arbeiterbienen: 50 g a.s./ha
Excerpt: as §2, §1

Apis mellifera [7] = experiment: Tunnel test / spray application / bees: brood development (share of comb cells); conditions: 50 g a.s./ha
Excerpt: as §2
Über alle Waben eines Bienenstocks wird der jeweilige Anteil an Zellen bestimmt, der durch Pollen, Nektar, Eier, Larven oder Puppen belegt ist bzw. leer ist. […]

[8] = result in words, 27 Tage nach Applikation

CN1COCN(Cc2cnc(Cl)s2)/C1=N\[N+](=O)[O-] [Thiamethoxam, reference compound]
Zahl toter Arbeiterbienen (Apis mellifera [1]; 6 DAA a (9:30 Uhr)): 143
Zahl toter Arbeiterbienen (Apis mellifera [1]; 6 DAA b (14:30 Uhr)): 35
Zahl toter Arbeiterbienen (Apis mellifera [1]; 7 DAA): 394
Zahl toter Arbeiterbienen (Apis mellifera [1]; 8 DAA): 143
Zahl toter Arbeiterbienen (Apis mellifera [1]; 9 DAA): 78
Zahl toter Arbeiterbienen (Apis mellifera [1]; 10 DAA): 295
Zahl toter Arbeiterbienen (Apis mellifera [1]; 11 DAA): 110
Zahl toter Arbeiterbienen (Apis mellifera [1]; 14 DAA): 40
Zahl toter Arbeiterbienen (Apis mellifera [1]; 16 DAA): 74
Zahl toter Arbeiterbienen (Apis mellifera [1]; 18 DAA): 29
Mortalität von Arbeiterbienen vor dem Bienenstock (Apis mellifera [1]; result in words, tent test, drench, I-5 20 mg a.s. / Pflanze, Thiamethoxam 10 mg a.s. / Pflanze): ausgeprägte Mortalität
Mortalität (Apis mellifera [2]; leaves taken 1 Tag nach Behandlung, 24 h contact): 100%
Mortalität (Apis mellifera [2]; leaves taken 1 Tag nach Behandlung, 48 h contact): 100%
Mortalität (Apis mellifera [2]; leaves taken 1 Tag nach Behandlung, 72 h contact): 100%
Mortalität (Apis mellifera [2]; leaves taken 3 Tage nach Behandlung, 24 h contact): 100%
Mortalität (Apis mellifera [2]; leaves taken 3 Tage nach Behandlung, 48 h contact): 100%
Mortalität (Apis mellifera [2]; leaves taken 3 Tage nach Behandlung, 72 h contact): 100%
Mortalität (Apis mellifera [2]; leaves taken 6 Tage nach Behandlung, 24 h contact): 100%
Mortalität (Apis mellifera [2]; leaves taken 6 Tage nach Behandlung, 48 h contact): 100%
Mortalität (Apis mellifera [2]; leaves taken 6 Tage nach Behandlung, 72 h contact): 100%
Mortalität (Apis mellifera [2]; leaves taken 13 Tage nach Behandlung, 24 h contact): 93,3%
Mortalität (Apis mellifera [2]; leaves taken 13 Tage nach Behandlung, 48 h contact): 93%
Mortalität (Apis mellifera [2]; leaves taken 13 Tage nach Behandlung, 72 h contact): 93,3%
Aktivität der Nahrungssuche, Zahl der Bienen / min / 4 m^2 (Apis mellifera [3]; 5 DAA): 28 Bienen / min / 4 m^2
Aktivität der Nahrungssuche, Zahl der Bienen / min / 4 m^2 (Apis mellifera [3]; 6 DAA b (14:30 Uhr)): 70 Bienen / min / 4 m^2
Aktivität der Nahrungssuche, Zahl der Bienen / min / 4 m^2 (Apis mellifera [3]; 7 DAA): 23 Bienen / min / 4 m^2
Aktivität der Nahrungssuche, Zahl der Bienen / min / 4 m^2 (Apis mellifera [3]; 8 DAA): 25 Bienen / min / 4 m^2
Aktivität der Nahrungssuche, Zahl der Bienen / min / 4 m^2 (Apis mellifera [3]; 9 DAA): 19 Bienen / min / 4 m^2
Aktivität der Nahrungssuche, Zahl der Bienen / min / 4 m^2 (Apis mellifera [3]; 11 DAA): 16 Bienen / min / 4 m^2
Aktivität der Nahrungssuche, Zahl der Bienen / min / 4 m^2 (Apis mellifera [3]; 13 DAA): 14 Bienen / min / 4 m^2
Aktivität der Nahrungssuche, Zahl der Bienen / min / 4 m^2 (Apis mellifera [3]; 15 DAA): 8 Bienen / min / 4 m^2
Aktivität der Nahrungssuche, Zahl der Bienen / min / 4 m^2 (Apis mellifera [3]; 16 DAA): 15 Bienen / min / 4 m^2
Aktivität der Nahrungssuche, Zahl der Bienen / min / 4 m^2 (Apis mellifera [3]; 17 DAA): 13 Bienen / min / 4 m^2
Aktivität der Nahrungssuche, Zahl der Bienen / min / 4 m^2 (Apis mellifera [3]; 18 DAA): 6 Bienen / min / 4 m^2
Aktivität der Nahrungssuche (Apis mellifera [3]; result in words, tent test, drench, I-5 20 mg a.s. / Pflanze, Thiamethoxam 10 mg a.s. / Pflanze (13 Tage nach Applikation)): fast vollständige Einstellung der Aktivität der Nahrungssuche
Zahl toter Puppen (Apis mellifera [4]; 0 DAA c (17:15 Uhr)): 0
Zahl toter Puppen (Apis mellifera [4]; 1 DAA): 0
Zahl toter Puppen (Apis mellifera [4]; 2 DAA): 0,1
Zahl toter Puppen (Apis mellifera [4]; 5 DAA): 0,5
Zahl toter Puppen (Apis mellifera [4]; 6 DAA): 0
Zahl toter Puppen (Apis mellifera [4]; 11 DAA): 0
Zahl toter Puppen (Apis mellifera [4]; 14 DAA): 0,4
Zahl toter Puppen (Apis mellifera [4]; 18 DAA): 0
Zahl toter Puppen (Apis mellifera [4]; 21 DAA): 0
Zahl toter Puppen (Apis mellifera [4]; 25 DAA): 0,2
Zahl toter Puppen (Apis mellifera [4]; -3 DAA (before application)): 0
Aktivität der Nahrungssuche, Zahl der Bienen / min / m^2 (Apis mellifera [5]; 0 DAA a (09:30 Uhr)): 26,8 Bienen / min / m^2
Aktivität der Nahrungssuche, Zahl der Bienen / min / m^2 (Apis mellifera [5]; 0 DAA c (14:15 Uhr)): 0,9 Bienen / min / m^2
Aktivität der Nahrungssuche, Zahl der Bienen / min / m^2 (Apis mellifera [5]; 0 DAA e (17:15 Uhr)): 0,4 Bienen / min / m^2
Aktivität der Nahrungssuche, Zahl der Bienen / min / m^2 (Apis mellifera [5]; 1 DAA b (15:30 Uhr)): 0 Bienen / min / m^2
Aktivität der Nahrungssuche, Zahl der Bienen / min / m^2 (Apis mellifera [5]; 2 DAA): 1,5 Bienen / min / m^2
Aktivität der Nahrungssuche, Zahl der Bienen / min / m^2 (Apis mellifera [5]; 3 DAA): 1,6 Bienen / min / m^2
Aktivität der Nahrungssuche, Zahl der Bienen / min / m^2 (Apis mellifera [5]; 6 DAA): 5,4 Bienen / min / m^2
Aktivität der Nahrungssuche, Zahl der Bienen / min / m^2 (Apis mellifera [5]; -1 DAA (before application)): 26,1 Bienen / min / m^2
Aktivität der Nahrungssuche, Zahl der Bienen / min / m^2 (Apis mellifera [5]; -2 DAA (before application)): 35,2 Bienen / min / m^2
Aktivität der Nahrungssuche, Zahl der Bienen / min / m^2 (Apis mellifera [5]; -3 DAA (before application)): 24,5 Bienen / min / m^2
Aktivität der Nahrungssuche (Apis mellifera [5]; result in words, tunnel test, spray, I-5 75 und 150 g a.s./ha, Thiamethoxam 50 g a.s./ha directly after application): fast vollständige Einstellung der Aktivität der Nahrungssuche
Zahl toter Arbeiterbienen (Apis mellifera [6]; 0 DAA b (15:15 Uhr)): 420
Zahl toter Arbeiterbienen (Apis mellifera [6]; 0 DAA c (17:15 Uhr)): 45,3
Zahl toter Arbeiterbienen (Apis mellifera [6]; 1 DAA): 152,8
Zahl toter Arbeiterbienen (Apis mellifera [6]; 2 DAA): 229,4
Zahl toter Arbeiterbienen (Apis mellifera [6]; 3 DAA): 50,2
Zahl toter Arbeiterbienen (Apis mellifera [6]; 4 DAA): 891,6
Zahl toter Arbeiterbienen (Apis mellifera [6]; 5 DAA): 2,4
Zahl toter Arbeiterbienen (Apis mellifera [6]; 6 DAA): 9
Zahl toter Arbeiterbienen (Apis mellifera [6]; 11 DAA): 16,5
Zahl toter Arbeiterbienen (Apis mellifera [6]; -3 DAA (before application)): 1,6
Mortalität von Arbeiterbienen vor dem Bienenstock (Apis mellifera [6]; result in words, tunnel test, spray, I-5 75 und 150 g a.s./ha, Thiamethoxam 50 g a.s./ha): ausgeprägte Mortalität
Anteil an Zellen: Eier (Apis mellifera [7]; 1 Tag vor Applikation): 17,5%
Anteil an Zellen: Larven (Apis mellifera [7]; 1 Tag vor Applikation): 9%
Anteil an Zellen: Leer (Apis mellifera [7]; 1 Tag vor Applikation): 30%
Anteil an Zellen: Nektar (Apis mellifera [7]; 1 Tag vor Applikation): 12%
Anteil an Zellen: Pollen (Apis mellifera [7]; 1 Tag vor Applikation): 2,4%
Anteil an Zellen: Puppen (Apis mellifera [7]; 1 Tag vor Applikation): 29,1%
Anteil an Zellen: Eier (Apis mellifera [7]; 6 Tage nach Applikation): 11,4%
Anteil an Zellen: Larven (Apis mellifera [7]; 6 Tage nach Applikation): 6,3%
Anteil an Zellen: Leer (Apis mellifera [7]; 6 Tage nach Applikation): 30,9%
Anteil an Zellen: Nektar (Apis mellifera [7]; 6 Tage nach Applikation): 19,4%
Anteil an Zellen: Pollen (Apis mellifera [7]; 6 Tage nach Applikation): 3,3%
Anteil an Zellen: Puppen (Apis mellifera [7]; 6 Tage nach Applikation): 28,7%
Anteil an Zellen: Eier (Apis mellifera [7]; 14 Tage nach Applikation): 19,4%
Anteil an Zellen: Larven (Apis mellifera [7]; 14 Tage nach Applikation): 7,4%
Anteil an Zellen: Leer (Apis mellifera [7]; 14 Tage nach Applikation): 51,8%
Anteil an Zellen: Nektar (Apis mellifera [7]; 14 Tage nach Applikation): 9,2%
Anteil an Zellen: Pollen (Apis mellifera [7]; 14 Tage nach Applikation): 1,5%
Anteil an Zellen: Puppen (Apis mellifera [7]; 14 Tage nach Applikation): 10,7%
Anteil an Zellen: Eier (Apis mellifera [7]; 27 Tage nach Applikation): 6,1%
Anteil an Zellen: Larven (Apis mellifera [7]; 27 Tage nach Applikation): 2%
Anteil an Zellen: Leer (Apis mellifera [7]; 27 Tage nach Applikation): 52%
Anteil an Zellen: Nektar (Apis mellifera [7]; 27 Tage nach Applikation): 15,5%
Anteil an Zellen: Pollen (Apis mellifera [7]; 27 Tage nach Applikation): 5,1%
Anteil an Zellen: Puppen (Apis mellifera [7]; 27 Tage nach Applikation): 19,2%
Zahl der Larven (Apis mellifera [7]; [8]): starke Abnahme
leere Wabenzellen (Apis mellifera [7]; [8]): Verdoppelung

From patent publication EP2193713A1, “Method for fighting animal pests without damaging pollinating insects” (Bayer CropScience AG, priority 2008, dated 2010)
